One assay concerns the target T1, COX-2 (Ovis aries, UniProt P79208).
T1 sequence (P79208 17-603): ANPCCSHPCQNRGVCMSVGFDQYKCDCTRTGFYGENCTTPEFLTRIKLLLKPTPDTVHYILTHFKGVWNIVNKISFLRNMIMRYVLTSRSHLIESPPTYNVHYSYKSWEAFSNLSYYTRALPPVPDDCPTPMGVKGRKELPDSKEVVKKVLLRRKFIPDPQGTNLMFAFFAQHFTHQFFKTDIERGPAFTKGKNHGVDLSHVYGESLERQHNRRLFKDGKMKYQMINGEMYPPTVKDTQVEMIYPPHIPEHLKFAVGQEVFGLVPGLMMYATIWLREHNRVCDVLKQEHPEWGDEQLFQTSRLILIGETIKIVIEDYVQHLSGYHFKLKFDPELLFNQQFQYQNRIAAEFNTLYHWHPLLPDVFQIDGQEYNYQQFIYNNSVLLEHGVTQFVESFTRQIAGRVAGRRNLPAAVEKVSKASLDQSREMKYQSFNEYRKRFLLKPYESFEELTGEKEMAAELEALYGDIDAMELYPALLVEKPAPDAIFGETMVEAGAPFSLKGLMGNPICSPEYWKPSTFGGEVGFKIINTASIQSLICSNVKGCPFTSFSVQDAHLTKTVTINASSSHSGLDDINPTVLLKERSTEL
The assay is described as follows: In vitro COX-2 inhibitory assay (Cayman colorimetric COX (ovine) inhibitor screening assay kit). The format is biochemical. As to the method: (Page: S20, Supplementary file).
Anti-inflammatory activity
In vitro COX-1 and COX-2 inhibitory assay […]
supplied by Cayman chemicals, Ann Arbor, MI, USA according to reported method 1. The colorimetric COX inhibitor screening assay utilizes the peroxidase component of cyclooxygenase. The peroxidase activity was assayed calorimetrically by monitoring the appearance of oxidized N,N,N',N'-tetramethyl-1,4-phenylenediamine (TMPD) at 590nm. The appearance of reagent was carried out following the instructions […]
The half- maximal inhibitor concentrations (IC50µM) were determined and the selectivity index (SI) values were calculated as IC50 (COX-1)/IC50 (COX-2).
1) Background wells- 160 µL of assay buffer and 10 µL of heme were added to background wells.
2) The 100% Initial activity wells- 150 µL of assay buffer, 10 µL of heme and 10 µL of enzyme (COX-1 or COX-2) were added.
3) Inhibitor well- 150 µL of assay buffer, 10 µL of heme and 10 µL of enzyme were added. […]
10) The absorbance was measured at 590 nm using a plate reader. […]
1) The average absorbance of all samples was determined.
2) The absorbance of background wells was subtracted from absorbance of the 100% Initial activity […]
7) Remove the cover and read the absorbance at 490-500 nm using a plate reader. […]
2) The absorbance of blank wells was subtracted from absorbance of the 100% Initial activity and the […]

A further assay has as its system 5-LOX. Put plainly: In vitro 5-LOX inhibitory assay (Abnova 5-LOX inhibitor screening assay kit). The format is biochemical.

Usually IC50 stands for the concentration that gives 50% inhibition. A high value points to lower potency. `Cc1ccc(C(C)C)c(O)c1C=NNC(=O)c1cc(-c2ccccc2)n(-c2ccccc2)n1` [Compound 8d, N'-(2-Hydroxy-3-isopropyl-6-methylbenzylidene)-1,5-diphenyl-1H-pyrazole-3-carbo-hydrazide]: the Selectivity index on COX-2 (SI = COX-1 IC50/COX-2 IC50) is 92.6. Besides, the IC50 was 110 ± 7 nM against COX-2 (mean of three replicates ± SD) and 3.11 ± 0.046 µM in the assay on 5-LOX.

(Values after paper PMC9704104, “Towards safer anti-inflammatory therapy: synthesis of new thymol–pyrazole hybrids as dual COX-2/5-LOX inhibitors” (Journal of Enzyme Inhibition and Medicinal Chemistry, 2022).)
